Measured values from PubChem BioAssay AID2060498 (Molecular Pharmacology Branch, DTP, NCI, 2025).
Values joined by “and” are separate entries in the source; they are usually repeats but may differ in a detail not shown here. Identical values can stand only once.

Tested on: 171881-019-R-J1-PDC tumor spheroids, viability
Assay: Anticancer human tumor 171881-019-R-J1-PDC patient-derived invasive breast carcinoma cell line growth inhibition [GQUAD]
Conditions: spheroids with HUVEC and MSC; for viability, T/C: stronger effect = lower value
Text: DNA G-quadruplex Stabilizer Agents in Combinations in Complex Spheroids
A high-throughput screen of multi-cell type tumor spheroids was designed to identify active combinations of DNA G-quadruplex stabilizer agents and targeted small molecules. Complex spheroids include a stromal component modeled by human endothelial cells (HUVEC) and fibroblasts modeled by human mesenchymal stem cells (MSCs). The concentration ranges selected for each drug and investigational agent were based upon clinically achievable concentrations if the clinical Cmax of the agent was known.
Compounds. The drugs and investigational agents: pidnarulex (CX-5461; NSC782164), APTO-253 (NSC789042), BRACO-19 (NSC847499), peposertib (NSC802822), ceralasertib (NSC780249), elimusertib (NSC800525), camonsertib (NSC841442), AZD-1390 (NSC803789), olaparib (NSC753686), talazoparib (NSC767125), ART-558 (NSC835418), sotorasib (NSC818433), MRTX-1133 (NSC836407), SN-38 (NSC673596), topotecan (NSC609699), etoposide (NSC141540), doxorubicin (NSC123127), gemcitabine (NSC613327), 5-fluorouracil (NSC19893), paclitaxel (NSC125973), vemurafenib (NSC761431), panobinostat (NSC761190), R-306465 (JNJ-16241199; NSC773264), adavosertib (NSC754352), TP-3654 (NSC805149), carboplatin (NSC241240), KSQ-4279 (NSC840948), and staurosporine (NSC755774) were obtained from the National Cancer Institute (NCI) Developmental Therapeutics Program Chemical Repository (34). The FDA-approved anticancer drug set is available from the NCI Developmental Therapeutics Program. […] The stock solutions were prepared in dimethyl sulfoxide (DMSO, Sigma-Aldrich, St. Louis, MO, cat. D2650) at 800-fold the tested concentration and stored at -70 degrees C prior to their use. All drugs and investigational agents were tested over a range starting from a high concentration at or near the clinical Cmax and decreasing in half-log increments. If the clinical Cmax for an agent had not been determined, the highest concentration tested was 10 microM.
2.3 Cell Culture. All cells were maintained in an incubator at 37 degrees C and 5% CO2 with 95% humidity. The PDC lines were cultured according to standard operating procedures established by the NCI PDMR. All PDCs were thawed and cultured in Matrigel-coated flasks prepared with a working solution of 1X Ham's F-12 nutrient mix, without supplementation (Invitrogen, cat. 11765054), 100 U/mL penicillin-streptomycin (Invitrogen, cat. 15140122), and 2.5% Matrigel (Corning Inc., cat. 354248) for the first three passages. The 857933-349-R-J2-PDC line was cultured in 6C/Colon 1B media, which includes advanced DMEM/F-12 (Thermo Fisher Scientific, cat. 12634028), 10 mM HEPES (Thermo Fisher Scientific, cat. 15630080), 1X GlutaMAX supplement (Thermo Fisher Scientific, cat. 35050061), 0.1 mg/mL primocin (InvivoGen, cat. ant-pm-2), 10% defined fetal bovine serum, heat inactivated (HyClone Laboratories Inc., cat. SH30070.03HI), 50% L-WRN conditioned media (ATCC, cat. CRL-3276), 1.25 mM N-Acetyl-L-cysteine (Sigma-Aldrich, cat. A9165), 10 mM nicotinamide (Sigma-Aldrich, cat. N0636), 1X B-27 supplement (Thermo Fisher Scientific, cat. 17504044), 1X N-2 supplement (Thermo Fisher Scientific, cat. 17502048), 10 microM Y-27632 dihydrochloride (Tocris Bioscience, cat. 1254), and 50 ng/mL human EGF recombinant protein (Thermo Fisher Scientific, cat. PHG0311). The 485176-168-R4-J1-PDC line was cultured in Panc media, which includes all 6C/Colon 1B media components plus 100 ng/mL human FGF-10 (Thermo Fisher Scientific, cat. 100-26), 500 nM SB-431542 (Selleckchem, cat. S1067), and gastrin (Tocris, cat. 3006).
[…]
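Also: spheroids exposed to compounds for 7 days.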
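For viability, T/C in this document: 100% = DMSO vehicle control viability.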

For `CC[C@@]1(O)C(=O)OCc2c1cc1n(c2=O)Cc2cc3c(CN(C)C)c(O)ccc3nc2-1`, the viability, T/C (compound 0.000999 µM) was 84.9% and 109% and 105%, the viability, T/C (compound 0.00316 µM) was 89.6% and 94.4% and 100% and the viability, T/C (compound 0.00999 µM) was 96.2% and 103% and 85.5%. For the same compound, the viability, T/C (compound 0.0316 µM) was 88.4% and 94.7% and 87.2%, the viability, T/C (compound 0.0999 µM) was 48.2% and 59.4% and 42.4% and the viability, T/C (compound 0.316 µM) was 35.1% (2×) and 48.3%. The IC50 (curve of compound) was 95 nM and 266 nM and 83.1 nM.

`CCc1c2c(nc3ccc(O)cc13)-c1cc3c(c(=O)n1C2)COC(=O)[C@]3(O)CC` + Cc1[nH]c2ccc(F)cc2c1-c1nc2c3cccnc3c3ncccc3c2[nH]1 showed an IC50 (curve of first compound, second compound 0.0316 µM) of 2.72 nM, an IC50 (curve of first compound, second compound 0.1 µM) of 2.74 nM and an IC50 (curve of first compound, second compound 0.316 µM) of 2.61 nM. For the same compound, the IC50 (curve of first compound, second compound 1 µM) was 2.24 nM, the IC50 (curve of first compound, second compound 3.16 µM) was less than 0.999 nM and the IC50 (curve of first compound, second compound 10 µM) was less than 0.999 nM. The viability, T/C (second compound 0.0316 µM, first compound 0.000999 µM) was 80.3%, the viability, T/C (second compound 0.0316 µM, first compound 0.00316 µM) was 42.4% and the viability, T/C (second compound 0.0316 µM, first compound 0.00999 µM) was 35.7%. The viability, T/C (second compound 0.0316 µM, first compound 0.0316 µM) was 33.1%, the viability, T/C (second compound 0.0316 µM, first compound 0.0999 µM) was 25.8% and the viability, T/C (second compound 0.0316 µM, first compound 0.316 µM) was 23.3%. The viability, T/C (second compound 0.1 µM, first compound 0.000999 µM) was 78.6%, the viability, T/C (second compound 0.1 µM, first compound 0.00316 µM) was 43.2% and the viability, T/C (second compound 0.1 µM, first compound 0.00999 µM) was 35.6%. The viability, T/C (second compound 0.1 µM, first compound 0.0316 µM) was 33.8%, the viability, T/C (second compound 0.1 µM, first compound 0.0999 µM) was 28.5% and the viability, T/C (second compound 0.1 µM, first compound 0.316 µM) was 22.6%. It also gave a viability, T/C (second compound 0.316 µM, first compound 0.000999 µM) of 74.4%, a viability, T/C (second compound 0.316 µM, first compound 0.00316 µM) of 42.9% and a viability, T/C (second compound 0.316 µM, first compound 0.00999 µM) of 34.8%. It also gave a viability, T/C (second compound 0.316 µM, first compound 0.0316 µM) of 33.4%, a viability, T/C (second compound 0.316 µM, first compound 0.0999 µM) of 27% and a viability, T/C (second compound 0.316 µM, first compound 0.316 µM) of 23.4%. For the same compound, the viability, T/C (second compound 1 µM, first compound 0.000999 µM) was 66.6%, the viability, T/C (second compound 1 µM, first compound 0.00316 µM) was 39.5% and the viability, T/C (second compound 1 µM, first compound 0.00999 µM) was 34.4%. It also gave a viability, T/C (second compound 1 µM, first compound 0.0316 µM) of 27.8%, a viability, T/C (second compound 1 µM, first compound 0.0999 µM) of 23.6% and a viability, T/C (second compound 1 µM, first compound 0.316 µM) of 18.7%. The viability, T/C (second compound 3.16 µM, first compound 0.000999 µM) was 19.9%, the viability, T/C (second compound 3.16 µM, first compound 0.00316 µM) was 14.7% and the viability, T/C (second compound 3.16 µM, first compound 0.00999 µM) was 14.6%. The viability, T/C (second compound 3.16 µM, first compound 0.0316 µM) was 11%, the viability, T/C (second compound 3.16 µM, first compound 0.0999 µM) was 10.2% and the viability, T/C (second compound 3.16 µM, first compound 0.316 µM) was 7.94%. For the same compound, the viability, T/C (second compound 10 µM, first compound 0.000999 µM) was 32%, the viability, T/C (second compound 10 µM, first compound 0.00316 µM) was 33.6% and the viability, T/C (second compound 10 µM, first compound 0.00999 µM) was 25.1%. The viability, T/C (second compound 10 µM, first compound 0.0316 µM) was 19.4%, the viability, T/C (second compound 10 µM, first compound 0.0999 µM) was 17% and the viability, T/C (second compound 10 µM, first compound 0.316 µM) was 12.5%.

For `C=CC(=O)N1CCN(c2nc(=O)n(-c3c(C)ccnc3C(C)C)c3nc(-c4c(O)cccc4F)c(F)cc23)C(C)C1` (stereo unspecified), the viability, T/C (compound 0.0316 µM) was 85.8% and 97% and 88.1%, the viability, T/C (compound 0.1 µM) was 94.8% and 102% and 105% and the viability, T/C (compound 0.316 µM) was 101% (2×) and 104%. The viability, T/C (compound 1 µM) was 104% (2×) and 108%, the viability, T/C (compound 3.16 µM) was 96.7% and 93.7% and 96.9% and the viability, T/C (compound 10 µM) was 51.8% and 53.1% and 55.6%. It also gave an IC50 (curve of compound) greater than 10000 nM.
